Data as given in patent US10047105B2, “Gyrase inhibitors” (Merck Sharp & Dohme Corp., priority 2009, dated 2018).
≈ marks a conversion by molar mass, not a printed value.

Columns and labels:
Format in all cases: cell-based
[1] = test system: E. coli 8 ATCC 25922; test: MIC, E. coli 8 (wt); conditions: E. coli 8 (EC8)
[2] = test system: S. pneumoniae ATCC 51916; test: MIC, S. pneumoniae; conditions: S. pneumoniae (Spn52); in µg/mL
[3] = test system: S. aureus ATCC 13709; test: MIC, antibacterial potency, S. aureus; conditions: S. aureus (SA); in µg/mL

| MIC EC8 [1] [µg/mL] | MIC Spn52 [2] | MIC, SA [3] | Structure (SMILES) |
| --- | --- | --- | --- |
| > 64 | <=0.5 | <=0.5 | CCc1[nH]c2nc(Oc3cccc(S(C)(=O)=O)c3)nc(Oc3ccc4nccnc4c3)c2c1Br [701,095] |
| > 64 | <=0.5 | <=0.5 | CCc1[nH]c2nc(Oc3cnc(OC)c(OC)c3)nc(Oc3ccc4nccnc4c3)c2c1Br [701,096] |
| > 64 | 32 | 16 | CCc1[nH]c2nc(Oc3cnc(N)nc3)nc(N3CC(CN(C)C)C3)c2c1Cl [701,112] |
| > 64 | 32 | 32 | CCc1[nH]c2nc(Oc3ccc4nccnc4c3)nc(N3CC(CN(C)C)C3)c2c1Cl [701,113] |
| > 64 | 16 | 8 | CCc1[nH]c2nc(Oc3ccc4nccnc4c3)nc(N3CC(CN(C)C)C3)c2c1Br [701,114] |
| 16 (≈ 35.4 µM) | <=0.5 | <=0.5 | CCc1[nH]c2nc(Sc3cnc4cccnc4c3)nc(N3CCC4CNC4C3)c2c1Cl (stereo not drawn) [701,115] |
| > 64 | 16 | 32 | CCc1[nH]c2nc(Sc3cnc4nccnc4c3)nc(N3C[C@@H](O)[C@@H](N)C3)c2c1Cl [701,119] |
| 32 (≈ 82.7 µM) | 2 | 2 | CCc1[nH]c2nc(Oc3cnc(N)nc3)nc(N3CC4C(N)C4C3)c2c1Cl (stereo not drawn) [701,122] |
| 4 (≈ 9.48 µM) | <=0.5 | <=0.5 | CCc1[nH]c2nc(Oc3cnc4cccnc4c3)nc(N3CC4C(N)C4C3)c2c1Cl (stereo not drawn) [701,126] |
| > 64 | >64 | >64 | CCc1[nH]c2nc(Sc3cnc4cccnc4c3)nc(N3CC4CC(C3)N(C(=O)OC(C)(C)C)C4)c2c1Cl (stereo not drawn) [701,132] |
| > 64 | 8 | 8 | CCc1[nH]c2nc(Oc3cnc(C(N)=O)nc3)nc(N3CC4C(N)C4C3)c2c1Cl (stereo not drawn) [701,133] |
| 64 (≈ 141 µM) | 4 | 2 | CCc1[nH]c2nc(Sc3cnc4nccnc4c3)nc(N3CC4CNC(C4)C3)c2c1Cl (stereo not drawn) [701,137] |
| > 64 | 8 | 4 | CCc1[nH]c2nc(Oc3cccnc3)nc(N3CC4C(N)C4C3)c2c1Cl (stereo not drawn) [701,140] |
| 64 (≈ 153 µM) | 2 | <=0.5 | CCc1[nH]c2nc(Sc3cnc4cccnc4c3)nc(N3CC4C(N)C4C3)c2c1C (stereo not drawn) [701,143] |
| 32 (≈ 68.2 µM) | 2 | <=0.5 | CCc1[nH]c2nc(Sc3cnc4nccnc4c3)nc(N3C[C@@H]4[C@H](C3)[C@@]4(N)CO)c2c1Cl [701,144] |

Further lines, the compound ahead of its results:

| Structure (SMILES) | MIC EC8 [1] [µg/mL] | MIC Spn52 [2] | MIC, SA [3] |
| --- | --- | --- | --- |
| CCc1[nH]c2nc(Oc3ccc[n+]([O-])c3)nc(Oc3ccc[n+]([O-])c3)c2c1Br [701,092] | > 64 | 2 | <=0.5 |
| CCc1[nH]c2nc(Oc3ccc[n+]([O-])c3)nc(Oc3cccnc3)c2c1Br [701,093] | > 32 | 4 | <=0.5 |
| CCc1[nH]c2nc(Sc3cnc4[nH][nH]c(=O)c4c3)nc(N3CC[C@@H](N)C3)c2c1Cl [701,094] | > 64 | >64 | >64 |
| CCc1[nH]c2nc(Oc3cnc(OC)c(OC)c3)nc(Oc3cnc(OC)c(OC)c3)c2c1Br [701,097] | > 64 | 1 | <=0.5 |
| CCc1[nH]c2nc(Sc3cnc4nccnc4c3)nc(N3CCC4CN[C@H]4C3)c2c1Cl (stereo partly drawn) [701,102] | 16 (≈ 35.3 µM) | 1. | <=0.5 |
| CCc1[nH]c2nc(Oc3cncnc3)nc(Oc3ccc4c(N5CCOCC5)ncnc4c3)c2c1Br [701,104] | > 32 | <=0.5 | <=0.5 |
| CCc1[nH]c2nc(Oc3cnc(O)nc3)nc(Oc3cnc(O)nc3)c2c1Br [701,105] | > 64 | 2 | 1 |
| CCc1[nH]c2nc(Oc3cnc(N)nc3)nc(Oc3cnc(N)nc3)c2c1Br [701,106] | > 64 | 4 | 2 |
| CCc1[nH]c2nc(Sc3cnc4ccc[n+]([O-])c4c3)nc(N3CCC4CNC4C3)c2c1Cl (stereo not drawn) [701,116] | 16 (≈ 34.2 µM) | 2 | <=0.5 |
| Cc1[nH]c2nc(Sc3cnc4nccnc4c3)nc(N3CC4C(N)C4C3)c2c1C (stereo not drawn) [701,117] | > 64 | 8 | 8 |
| CCc1[nH]c2nc(Sc3cnc4nccnc4c3)nc(N3CC4NC4C3)c2c1Cl (stereo not drawn) [701,118] | 64 (≈ 151 µM) | 2 | 4 |
| CCc1[nH]c2nc(Sc3cnc4nccnc4c3)nc(N3CCC(CC)(NC(=O)C(F)(F)F)C3)c2c1Cl (stereo not drawn) [701,120] | > 64 | 32 | 4 |
